From the NIST ThermoML archive (doi:10.1016/j.fluid.2014.01.008)
Numbers after ± are expanded uncertainties.

Settings: Crystal; DTA

Question: With `O=C1C=CC(=O)O1` [maleic anhydride] as the compound, how does the Normal melting temperature read?
Answer: 52.80 ± 0.5 °C
